What was measured:
ykt6 [1] = test: Ykt6 membrane shift analysis (cytosol/membrane fractions) in FTI-treated cultures; type: cell-based, human; details: SH-SY5Y wt a-syn cells and A53T iPSn; 5 nM, 5 days
Procedure: FIGS. 5A, 5B, 5C, 5D, 5E, 5F, and 5G. Reducing farnesyl-ykt6 enhances SNARE assembly and improves the lysosomal targeting of GCase. 5A) Ykt6 membrane shift analysis of SH-SY5Y cells expressing GFP-ykt6 wt or CS (n=3). 5B) Co-IP of GFP-ykt6 and bet1 in A53T iPSn (n=3). 5C) Ykt6 membrane shift analysis in FTI-treated SH-SY5Y wt a-syn cells or A53T iPSn (5 nM farnesyltransferase inhibitors (FTI) LNK-754 (FTI-1) or LNK-3248 (FTI-2) for 5 days) (n=4). Sec22b was measured to assess specificity. 5D) SEC/western blot of FTI-1 treated SH-SY5Y cells. Quantification is shown below. 5E) Co-IP of GFP-ykt6 wt or mutant ykt6-SS, (cannot be palmitoylated or farnesylated) in FTI-treated SHSY5Y cells (5 nM LNK-754, 5d) (n=2). 5F) Immunofluorescence of GCase and LAMP2A in FTI-treated H4 a-syn cells transfected with scrambled (scrb) or ykt6 shRNA (n=3). Scale bar=10 um. 5G) GCase maturation analysis in FTI-treated A53T iPSn by endo H (n=3). Values are the mean+/−SEM, *p<0.05.
Separation of lysates into cytosol and membrane fractions. […] Fractions were then analyzed by western blot analysis as described below. The samples were not analyzed in a blinded manner.
Treatment of cultures with farnesyltransferase inhibitors. […] Cultures were harvested and analyzed as described in the above sections.

GCase = test: FTI treatment of wild-type mice: GCase maturation and activity in cortex; type: in vivo; details: daily i.p. 0.9 mg/kg, 14 days
Procedure: FIGS. 15A, 15B, 15C, 15D, 15E, and 15F. FTI treatment of wild-type mice enhances ykt6 SNARE complexes, lysosomal activity, and reduces a-syn. 15A) Wild-type mice (C57Bl/6) were i.p. injected daily with FTI for 14 days at 0.9 mg/kg and compared to vehicle injected mice. Extracts from the cortex were analyzed for cytosolic (cyt) and membrane (mem) distribution of ykt6 (veh, n=5; FTI, n=6). 15B) Representative gel filtration/western blot analysis of cortical extracts of veh or FTI injected wild-type mice. Inputs are shown on the left. NSE indicates equal column loading. 15C) Quantification of ykt6 and STX5 complexes (ca. 120A) from gel filtration analysis in C (n=4 mice). Fraction 1 corresponds to complexes at 120A, while fractions 7-9 correspond to ykt6 monomers at 22-14 A. 15D) The levels of post ER (endo H resistant) GCase were analyzed by western blot and post ER/ER ratios were quantified from the cortex of FTI treated mice (veh, n=5; FTI, n=6). 15E) GCase activity was assessed in cortical lysates and normalized to total protein (veh, n=4; FTI, n=6). 15F) a-Syn levels were quantified from cytosolic or membrane isolated fractions from the cortex of wild-type FTI treated mice (veh, n=4; FTI, n=6). For all quantifications, values are the mean+/−SEM, *p<0.05.
Analysis of post-ER GCase. […]

ykt6 [2] = test: Ykt6 in red blood cells of FTI-treated mice; type: in vivo; details: WT mice
Excerpt: FIG. 20. Ykt6 in red blood cells of human and mice. A) Fractionation of RBCs/western blot of ykt6. Markers indicate efficient separation of cytosol (GAPDH) and membrane (Ank, Ankyrin-1). […] B) Ykt6 from RBCs of nTg of symptomatic 12 mo old A53T mice (ref 12) (n=3-5).
(See FIG. 20A). […] (See FIG. 20C).

Question: Which “membrane association of ykt6” value (ykt6 [1]) does the source give for `C#Cc1cccc(-c2cc(=O)n(C)c3ccc([C@](O)(c4ccc(Cl)cc4)c4cncn4C)cc23)c1` [LNK-754] here?
Answer: increased membrane association of ykt6

Question: And the “sec22b levels (specificity)” value (ykt6 [1])?
Answer: did not change

Question: What about the “mature, endo H resistant GCase in brain” value (GCase; cortex) of the same compound?
Answer: elevated levels

Question: What about the “GCase enzyme activity in brain” value (GCase; cortical lysates) of the same compound?
Answer: higher enzyme activity

Question: And the “membrane Ykt6 in red blood cells” value (ykt6 [2])?
Answer: increases membrane Ykt6

Question: What about the “membrane Ykt6 in red blood cells” value (ykt6 [2]; listed as FTI) of the same compound?
Answer: activation of ykt6 in red blood cells

Source: patent publication US12226410B2, “Methods for enhancing cellular clearance of pathological molecules via activation of the cellular protein ykt6” (NORTHWESTERN UNIVERSITY, priority 2019, dated 2025)
